Source: PubChem BioAssay (NCI)
Several values for one entry are separate records, joined by “and”; a condition that tells them apart may be missing. Equal values may be shown once.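 Dose response: 5 concentrations. Exposure: 48 h. Format: 96-well plates. Endpoint: linear interpolation; highest concentration if not reached. At the GI50, growth is halved. TGI denotes the concentration required for complete inhibition of growth.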

Key:
Test in all cases: DTP human tumour cell line panel, 48 h
A549 NSCLC = tested on: A549 NSCLC
LOX IMVI melanoma = tested on: LOX IMVI melanoma
NCI-H226 lung = tested on: NCI-H226 lung
NCI-H23 lung = tested on: NCI-H23 lung
NCI-H522 lung = tested on: NCI-H522 lung
OVCAR-4 ovarian = tested on: OVCAR-4 ovarian
RXF 393 renal = tested on: RXF 393 renal
SK-MEL-5 melanoma = tested on: SK-MEL-5 melanoma
HCC-2998 colon = tested on: HCC-2998 colon
DU-145 prostate = tested on: DU-145 prostate

Row | SMILES | TGI (A549 NSCLC) | TGI (LOX IMVI melanoma) | TGI (NCI-H226 lung) | TGI (NCI-H23 lung) | TGI (NCI-H522 lung) | TGI (OVCAR-4 ovarian) [µM] | TGI (RXF 393 renal) [µM] | TGI (SK-MEL-5 melanoma) [µM] | GI50 (HCC-2998 colon) [µM] | TGI (HCC-2998 colon) [µM] | GI50 (LOX IMVI melanoma) [µM] | GI50 (NCI-H23 lung) [µM] | GI50 (NCI-H522 lung) [µM] | GI50 (OVCAR-4 ovarian) [µM] | GI50 (RXF 393 renal) [µM] | GI50 (SK-MEL-5 melanoma) [µM] | TGI (DU-145 prostate) [µM] | GI50 (A549 NSCLC) [µM] | GI50 (DU-145 prostate) [µM] | GI50 (NCI-H226 lung) [µM]
1 | Brc1cccc(C2SCc3nc4ccccc4n32)c1 (stereo unspecified) | > 100 µM | 28.6 µM | 27 µM | 44.7 µM | 36.6 µM | 63.3 | 26.4 | 18.9 |  |  |  |  |  |  |  |  |  |  |  | 
2 | COc1ccc(C2CC(c3cc(OC)c(OC)c(OC)c3)=NN2C(C)=O)cc1OCC(=O)Nc1nc2ccc(C(F)(F)F)cc2s1 (stereo unspecified) |  | > 100 µM |  | 33 µM | > 100 µM | > 100 | 5.32 | > 100 | > 100 | > 100 | 3.36 | 3.76 | 2.71 | 2.9 | 2.09 | 3.56 |  |  |  | 
3 | CCOC(=O)c1oc2ccc(OC)c3c2c1CCC3 | > 100 µM | > 100 µM | > 100 µM | > 100 µM | > 100 µM | > 100 | > 100 | > 100 |  | > 100 |  |  |  |  |  |  |  |  |  | 
4 | O=C1OC(CCCl)(c2ccccc2)CC1CN1CCOCC1 (stereo unspecified) | > 100 µM | 83.1 µM | 28 µM | 23.7 µM | 33.5 µM | > 100 | 30.9 | 41.7 |  | > 100 |  |  |  |  |  |  |  |  |  | 
5 | O=S(=O)(c1ccccc1)C(CN1CCCCC1)S(=O)(=O)c1ccccc1 | > 100 µM | > 100 µM | > 100 µM | > 100 µM | > 100 µM | > 100 | > 100 |  |  | > 100 |  |  |  |  |  |  |  |  |  | 
6 | CCCCCCCCCCCC(=O)OCCOCCOCCOCCOCCOCc1ccc(OC)cc1 | > 100 µM | > 100 µM | > 100 µM | > 100 µM | > 100 µM | > 100 | > 100 | > 100 |  | > 100 |  |  |  |  |  |  |  |  |  | 
7 | C[Si](C)(C)OC1(C#N)C2C3CC4C2C(=O)C2C4C3C21 (stereo unspecified) | > 100 µM |  | > 100 µM |  |  | > 100 | > 100 | > 100 |  | > 100 |  |  |  |  |  |  |  |  |  | 
8 | Cn1cnc2nc(Cl)nc(NC(C)(C)C(C)(C)O)c21 | > 100 µM |  | > 100 µM | > 100 µM | > 100 µM | > 100 | > 100 | > 100 |  | > 100 |  |  |  |  |  |  |  |  |  | 
9 | COc1cc2c(cc1OC(=O)CC(C)O)C1C(OC2=O)C(OC(C)=O)C=C2CCN(C)[C@H]21 (stereo partly specified) | > 100 µM | > 100 µM | 65.9 µM | > 100 µM | > 100 µM | > 100 |  | > 100 |  | > 100 |  |  |  |  |  |  |  |  |  | 
10 | CCOc1ccc2nc(NC(=O)c3c/c(=N\NC(=O)C[N+](C)(C)C)c4ccc(O)cc4o3)sc2c1 | 7.84 µM | 5.73 µM | 12 µM | 7.13 µM | 4.14 µM | 5.96 | 14.4 | 1.85 |  | 20.8 |  |  |  |  |  |  |  |  |  | 
11 | CS(=O)(=O)c1ccc(C(=O)Nc2ccc(Cl)c(-c3ccccn3)c2)c(Cl)c1 | > 100 µM and 21.2 µM | > 100 µM and 10.1 µM | > 100 µM and 26.5 µM | > 100 µM and 17.2 µM | > 94 µM and 9.43 µM | > 100 |  |  |  |  |  |  |  | 29.7 |  |  | > 100 |  |  | 
12 | CCN=C1C=CC(=C(c2ccc(N)cc2)c2ccc(N(CC)CC)c(C)c2)C=C1 | 12.9 µM |  |  | 1.3 µM | 1.62 µM | 1.66 | 1.86 | 0.44 | 0.48 | 1.65 |  | 0.318 | 0.31 | 0.298 | 0.4 | 0.208 | 2.28 | 0.337 | 0.43 | 
13 | CCCCCCc1cc(C(=O)Nc2cccc(C(F)(F)F)c2)nc(N)n1 | > 100 µM | > 100 µM | > 100 µM | > 100 µM |  | > 100 | > 100 | > 100 |  | > 100 |  |  |  |  |  |  |  |  |  | 
14 | CC(C)CC(CC1=CCC2CC1C2(C)C)C1=C(O)C(C)(C)C(=O)C(C)(C)C1=O (stereo unspecified) | > 100 µM | 10.7 µM | 9.46 µM | 1.57 µM | 0.992 µM | > 100 | 3.83 | 0.468 |  |  | 0.336 | 0.321 | 0.271 | 0.486 | 0.434 | 0.206 | > 100 | 0.359 | 0.465 | 0.42
15 | c1ccc2c(C3NCCc4[nH]cnc43)cccc2c1 (stereo unspecified) | > 100 µM | > 100 µM | > 100 µM | > 100 µM | > 100 µM | > 100 | > 100 | > 100 |  | > 100 |  |  |  |  |  |  |  |  |  | 
16 | Cn1c2c(cc(S(=O)(=O)c3ccccc3)c1=O)CCc1c-2cnn1-c1ccc(Cl)cc1 |  | 17.3 µM | 4.94 µM | > 100 µM | 4.12 µM | 6.71 | 3.71 |  | 7.31 | > 100 | 4.09 | 4.65 | 1.78 | 2.5 | 1.9 |  |  |  |  | 2.22
17 | O=c1[nH]c2ccccc2nc1-c1c[nH]c2ccccc12 | > 100 µM | > 100 µM |  | > 100 µM | > 100 µM | > 100 | > 100 | > 100 | > 100 | > 100 | > 100 | > 100 | > 100 | > 100 | 7.41 | > 100 | > 100 | > 100 | > 100 | 
18 | COc1ccc(N=c2ssc3c(=S)ssc23)cc1 | > 100 µM | 34.1 µM | > 100 µM | > 100 µM | 35.5 µM | > 100 | 38.7 | 57.1 |  | > 100 |  |  |  |  |  |  |  |  |  | 
19 | CCN(C(=O)N1CCN(c2cc3c(cc2F)c(=O)c(C(=O)O)cn3C2CC2)CC1)c1nc(-c2ccc(C)cc2)cs1 | > 100 µM |  |  | 24.6 µM |  |  | 4.2 | > 100 | 0.694 | > 100 |  | 0.399 | 1.02 |  | 0.38 | 0.858 | 82.8 | 0.42 | 0.442 | 
